# In ChEMBL document CHEMBL4145665, “Structure-Activity Relationship of Novel and Selective Biaryl-Chroman GPR40 AgoPAMs” (ACS Med Chem Lett, 2018):
# What was measured:
# Rattus norvegicus [1] = test: Antidiabetic activity in po dosed Goto Kakizaki rats assessed as reduction in blood glucose excursion pretreated for 1 hr followed by dextrose challenge measured after 20 to 60 mins by OGTT method; format: functional; conditions: read-out: MED
# [2] = target: T1, Free fatty acid receptor 1 (Homo sapiens, UniProt O14842); test: Agonist activity at recombinant human GPR40 expressed in HEK293 cells assessed as increase in IP1 accumulation measured after 60 mins by HTRF assay; format: functional, cell-based
# [3] = Clearance in Beagle dog at 1 mg/kg, iv or 2 mg/kg, po administered as single dose; format: ADME, organism-based, Canis lupus familiaris; conditions: in vivo
# [4] = AUC (0 to 24 hrs) in Wistar rat at 200 mg/kg administered once daily for 4 days; format: ADME, organism-based; design: dose 200 mg/kg, time < 24 hr; conditions: in vivo
# [5] = Effective half life in rhesus monkey at 1 mg/kg, iv or 2 mg/kg, po administered as single dose; format: ADME, organism-based, Macaca mulatta; conditions: in vivo, read-out: t1/2eff (converted)
# [6] = Fraction unbound in Wistar-Han rat plasma at 1 mg/kg, iv or 2 mg/kg, po administered as single dose; format: ADME, organism-based
# Rattus norvegicus [7] = test: Antidiabetic activity in Goto Kakizaki rats assessed as inhibition of blood glucose AUC at 0.3 mg/kg, po pretreated for 1 hr followed by dextrose challenge measured after 20 to 60 mins by OGTT method relative to control; format: functional
# [8] = Tmax in Wistar rat at 750 mg/kg administered once daily for 4 days; format: ADME, organism-based; conditions: in vivo
# [9] = Drug metabolism in human hepatocytes assessed as phenol metabolite formation; format: ADME, cell-based, Hepatocyte
# [10] = Intrinsic clearance in rhesus monkey hepatocytes; format: ADME, cell-based, Macaca mulatta, Hepatocyte; conditions: read-out: CLH
# [11] = Oral bioavailability in rhesus monkey at 2 mg/kg administered as single dose; format: ADME, organism-based, Macaca mulatta; conditions: in vivo
# [12] = Intrinsic clearance in Wistar-Han rat hepatocytes; format: ADME, cell-based, Hepatocyte; conditions: read-out: CLH
# Rattus norvegicus [13] = test: Antidiabetic activity in Goto Kakizaki rats assessed as plasma concentration required for reduction in blood glucose excursion at 1 mg/kg, po pretreated for 1 hr followed by dextrose challenge measured 3 hrs post dose by OGTT; format: functional, organism-based
# Rattus norvegicus [14] = test: Toxicity in Wistar rat assessed as change in cardiac troponin1 levels at 200 to 750 mg/kg administered once daily for 4 days; format: organism-based; conditions: in vivo, 96 h
# [15] = Cmax in Wistar rat at 750 mg/kg administered once daily for 4 days; format: ADME, organism-based; design: dose 750 mg/kg; conditions: in vivo
# Rattus norvegicus [16] = test: Toxicity in Wistar rat assessed as decrease in body weight at 200 mg/kg administered once daily for 4 days relative to control; format: organism-based; design: scale not given: the % may be the effect or the level left; conditions: in vivo, 96 h
# [17] = Cmax in Wistar rat at 200 mg/kg administered once daily for 4 days; format: ADME, organism-based; design: dose 200 mg/kg; conditions: in vivo
# [18] = Tmax in Wistar rat at 200 mg/kg administered once daily for 4 days; format: ADME, organism-based; conditions: in vivo
# Rattus norvegicus [19] = test: Toxicity in Wistar rat assessed as change in functional observational battery at 200 to 750 mg/kg administered once daily for 4 days; format: organism-based; conditions: in vivo, 96 h
# [20] = target: Free fatty acid receptor 1 (Rattus norvegicus, UniProt Q8K3T4); test: Agonist activity at recombinant rat GPR40 expressed in CHOK1 cells assessed as increase in IP1 accumulation measured after 60 mins by HTRF assay; format: functional, cell-based
# [21] = target: T1, Free fatty acid receptor 1; test: Agonist activity at recombinant human GPR40 expressed in HEK293 cells assessed as increase in IP1 accumulation measured after 60 mins in presence of 100% human serum by HTRF assay; format: functional, cell-based
# [22] = Clearance in Wistar-Han rat at 1 mg/kg, iv or 2 mg/kg, po administered as single dose; format: ADME, organism-based; conditions: in vivo
# Rattus norvegicus [23] = test: Antidiabetic activity in Sprague-Dawley rat assessed as inhibition of blood glucose AUC at 3 mg/kg, po treated prior to dextrose challenge and measured after 20 to 60 mins by IPGTT relative to control; format: functional; conditions: Rattus norvegicus, Sprague-Dawley, po
# [24] = Oral bioavailability in Beagle dog at 2 mg/kg administered as single dose; format: ADME, organism-based, Canis lupus familiaris; conditions: in vivo
# Rattus norvegicus [25] = test: Antidiabetic activity in Goto Kakizaki rats assessed as plasma concentration required for reduction in blood glucose excursion at 0.3 mg/kg, po pretreated for 1 hr followed by dextrose challenge measured 3 hrs post dose by OGTT; format: functional, organism-based
# [26] = target: T2, Free fatty acid receptor 4 (Homo sapiens, UniProt Q5NUL3); test: Agonist activity at GPR120 (unknown origin); format: functional
# T2 sequence (Q5NUL3 whole entry): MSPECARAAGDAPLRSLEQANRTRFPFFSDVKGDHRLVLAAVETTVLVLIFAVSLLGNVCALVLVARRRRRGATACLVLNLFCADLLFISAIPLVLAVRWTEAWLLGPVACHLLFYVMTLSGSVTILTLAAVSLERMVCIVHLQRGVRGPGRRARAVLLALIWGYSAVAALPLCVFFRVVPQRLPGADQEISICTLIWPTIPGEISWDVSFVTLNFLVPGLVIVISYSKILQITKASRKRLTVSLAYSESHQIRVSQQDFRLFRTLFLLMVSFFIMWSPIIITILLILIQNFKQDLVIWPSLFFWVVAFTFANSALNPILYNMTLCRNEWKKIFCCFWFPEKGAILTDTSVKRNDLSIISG
# Mus musculus = test: Antidiabetic activity in po dosed C57BL/6 mouse assessed as increase in GLP-1 secretion measured after 1 hr; format: functional, organism-based
# Rattus norvegicus [27] = test: Toxicity in Wistar rat assessed as gross findings at 200 to 750 mg/kg administered once daily for 4 days; format: organism-based; conditions: in vivo, 96 h
# Rattus norvegicus [28] = test: Antidiabetic activity in po dosed Goto Kakizaki rats assessed as plasma concentration required for reduction in blood glucose excursion at MED pretreated for 1 hr followed by dextrose challenge measured 3 hrs post dose by OGTT; format: functional, organism-based
# Rattus norvegicus [29] = test: Toxicity in Wistar rat assessed as mortality at 200 to 750 mg/kg administered once daily for 4 days; format: organism-based; conditions: in vivo, 96 h
# [30] = target: Free fatty acid receptor 1 (Rattus norvegicus) (UniProt Q8K3T4); test: Agonist activity at recombinant rat GPR40 expressed in CHOK1 cells assessed as increase in IP1 accumulation measured after 60 mins by HTRF assay relative to AM-1638; format: functional, cell-based
# [31] = Volume of distribution at steady state in rhesus monkey at 1 mg/kg, iv or 2 mg/kg, po administered as single dose; format: ADME, organism-based, Macaca mulatta; conditions: in vivo, read-out: Vdss
# [32] = target: T1, Free fatty acid receptor 1; test: Agonist activity at recombinant human GPR40 expressed in HEK293 cells assessed as increase in IP1 accumulation measured after 60 mins in presence of 100% human serum by HTRF assay relative to AM-1638; format: functional, cell-based
# [33] = Volume of distribution at steady state in Beagle dog at 1 mg/kg, iv or 2 mg/kg, po administered as single dose; format: ADME, organism-based, Canis lupus familiaris; conditions: in vivo, read-out: Vdss
# [34] = Fraction unbound in Beagle dog plasma at 1 mg/kg, iv or 2 mg/kg, po administered as single dose; format: ADME, organism-based, Canis lupus familiaris
# [35] = Effective half life in Wistar-Han rat at 1 mg/kg, iv or 2 mg/kg, po administered as single dose; format: ADME, organism-based; conditions: in vivo, read-out: t1/2eff (converted)
# [36] = Fraction unbound in rhesus monkey plasma at 1 mg/kg, iv or 2 mg/kg, po administered as single dose; format: ADME, organism-based, Macaca mulatta
# [37] = Volume of distribution at steady state in Wistar-Han rat at 1 mg/kg, iv or 2 mg/kg, po administered as single dose; format: ADME, organism-based; conditions: in vivo, read-out: Vdss
# [38] = Clearance in rhesus monkey at 1 mg/kg, iv or 2 mg/kg, po administered as single dose; format: ADME, organism-based, Macaca mulatta; conditions: in vivo
# T1 sequence (O14842 whole entry): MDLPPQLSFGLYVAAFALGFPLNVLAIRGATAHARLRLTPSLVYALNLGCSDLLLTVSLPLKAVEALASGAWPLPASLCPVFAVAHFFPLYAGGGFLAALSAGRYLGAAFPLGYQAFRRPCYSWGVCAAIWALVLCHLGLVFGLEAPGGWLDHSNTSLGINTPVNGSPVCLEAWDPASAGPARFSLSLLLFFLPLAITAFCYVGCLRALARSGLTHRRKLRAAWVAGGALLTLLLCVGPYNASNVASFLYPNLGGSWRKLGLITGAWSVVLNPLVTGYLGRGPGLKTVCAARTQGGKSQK
# Chain of Free fatty acid receptor 1 (Rattus norvegicus, UniProt Q8K3T4) (Q8K3T4 whole entry): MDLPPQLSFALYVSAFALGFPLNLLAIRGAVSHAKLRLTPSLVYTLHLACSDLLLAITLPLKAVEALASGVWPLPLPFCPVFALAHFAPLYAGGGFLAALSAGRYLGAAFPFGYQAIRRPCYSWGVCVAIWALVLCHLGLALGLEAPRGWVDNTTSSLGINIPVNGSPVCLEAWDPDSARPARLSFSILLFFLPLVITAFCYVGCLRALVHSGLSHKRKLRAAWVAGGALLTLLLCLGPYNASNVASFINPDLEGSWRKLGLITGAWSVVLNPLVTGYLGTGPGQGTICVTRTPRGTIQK
# Chain of Free fatty acid receptor 1 (Rattus norvegicus) (Q8K3T4 whole entry): as above
structure (smiles),measurement,setting,value
COc1cc(-c2ccc([C@@H]3CCc4ccc([C@H](C5CC5)[C@H](C)C(=O)[O-])cc4O3)c(F)c2)ccn1.[Na+],minimal effective dose,Rattus norvegicus [1],10 mg/kg
same,EC50,[2],0.8 nM
same,clearance,[3],1.6 mL/min/kg
same,AUC at 24 h,[4],2310 µM·h
same,half-life,[5],600 min
same,fraction unbound,[6],0.0002
same,inhibition in vivo at 0.3 mg/kg,Rattus norvegicus [7],63%
same,Tmax,[8],1 to 2 h
same,Drug metabolism,[9],Metabolite_Notdetected
same,CLint scaled,[10],102 mL/min/kg
same,bioavailability,[11],64%
same,CLint scaled,[12],241 mL/min/kg
same,Cp,Rattus norvegicus [13],0.9 µM
same,Activity,Rattus norvegicus [14],Non-Toxic
same,Cmax,[15],545 µM
same,Activity,Rattus norvegicus [16],72%
same,Cmax,[17],223 µM
same,Tmax,[18],1 to 2 h
same,Activity,Rattus norvegicus [19],Non-Toxic
same,EC50,[20],0.49 nM
same,EC50,[21],35 nM
same,clearance,[22],2.8 mL/min/kg
same,inhibition in vivo at 3 mg/kg,Rattus norvegicus [23],103%
same,bioavailability,[24],79%
same,Cp,Rattus norvegicus [25],0.25 µM
same,EC50,[26],> 10 µM
same,Activity,Mus musculus,Dose-dependent effect
same,Activity,Rattus norvegicus [27],Non-Toxic
same,Cp,Rattus norvegicus [28],4.9 µM
same,Activity,Rattus norvegicus [29],Non-Toxic
same,max activation,[30],> 370%
same,Vd,[31],0.48 L/kg
same,max activation,[32],> 179%
same,Vd,[33],0.45 L/kg
same,fraction unbound,[34],0.015
same,half-life,[35],222 min
same,fraction unbound,[36],0.00071
same,Vd,[37],0.48 L/kg
same,clearance,[38],0.72 mL/min/kg
